Source: patent US20260078114A1, “COMPOUND USED AS INHIBITOR OF CDK4 KINASE AND USE THEREOF” (TYK MEDICINES, INC., priority 2022, published 2026)
pIC50: −log10 of the molar value. Where two headings read alike, the source gives them in different places.

Columns and labels:
CDK6/CyclinD3 = CDK6/CyclinD3 (Homo sapiens, UniProt Q00534); test: Kinase activity test (mobility shift assay, EZ Reader), CDK6; type: biochemical; settings: CDK6/CyclinD3 5.00 nM, ATP 350 μM, FL-Peptide34
CDK4/CycD1 = CDK4/CycD1 (Homo sapiens, UniProt P11802); test: Kinase activity test (mobility shift assay, EZ Reader), CDK4
Sequence of CDK4/CycD1 (P11802 whole entry, species assumed): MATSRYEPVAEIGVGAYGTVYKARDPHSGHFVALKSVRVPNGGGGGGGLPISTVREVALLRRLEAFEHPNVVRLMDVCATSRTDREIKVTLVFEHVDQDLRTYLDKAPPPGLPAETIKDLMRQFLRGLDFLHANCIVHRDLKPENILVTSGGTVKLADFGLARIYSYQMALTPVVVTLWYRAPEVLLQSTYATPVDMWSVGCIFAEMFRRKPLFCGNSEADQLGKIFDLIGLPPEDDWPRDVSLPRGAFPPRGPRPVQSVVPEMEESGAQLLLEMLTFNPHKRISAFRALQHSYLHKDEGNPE
Sequence of CDK4/CycD1 (P24385 whole entry partner, species assumed): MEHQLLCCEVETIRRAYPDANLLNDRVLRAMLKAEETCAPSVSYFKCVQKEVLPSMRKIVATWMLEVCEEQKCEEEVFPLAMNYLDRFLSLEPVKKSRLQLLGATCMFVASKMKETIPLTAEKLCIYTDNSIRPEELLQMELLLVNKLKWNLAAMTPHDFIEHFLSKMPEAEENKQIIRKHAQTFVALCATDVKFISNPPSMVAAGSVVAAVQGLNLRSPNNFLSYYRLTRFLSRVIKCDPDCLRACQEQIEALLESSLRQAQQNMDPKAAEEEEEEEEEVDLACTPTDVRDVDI
Description: The tested compounds were subjected to CDK4 and CDK6 kinase IC50 values test.
• (1) Preparing a 1.3× enzyme solution containing enzyme, substrate and cofactor as shown below. • (2) Adding 15 μL of 1.3× enzyme solution to each well and incubating for 30 min at room temperature. • (3) Starting the reaction by adding 5 μL of 4×ATP solution, with each test well containing the listed components and a final volume of 20 μL. • (4) Incubating for 150 minutes and then stopping the reaction by adding 75 μL of buffer (containing 0.5 M EDTA). • (5) Reading the data from each test well by EZ for analysis.
Percentage inhibition was calculated using the read conversion ratio (CR) according to the formula below:
The wells treated with DMSO were used as positive control (positive control) and the wells without enzyme were used as negative control (negative control).

[1] = tested on: human mantle cell lymphoma cell JEKO-1; test: Cellular antiproliferative assay (MTT, 5 days), JEKO-1; type: cell-based; settings: JEKO-1 cells, 5 days incubation
Description: (§1) Human breast cancer cell MCF-7, ovarian cancer cell A2780, human mantle cell lymphoma cell JEKO-1. DMEM medium (Bio-Channel), DMSO (dimethyl sulfoxide), MTT (thiazolyl blue), 0.25% EDTA-Tripsin (tryptic digest), 1×PBS (phosphate buffer, PH7.2), 96-well plate (Corning), fetal bovine serum (FBS), 10,000 U/mL penicillin-G/streptomycin, high-speed cryo-centrifuge (EPPENDORF 5810R), enzyme-linked immunoassay (Tecan Spark).
(§2) • A) Tumor cells were cultured in DMEM (high sugar with 10% FBS and 100 U/mL penicillin-G/streptomycin) at 37° C., 5% CO2 and saturated humidity until 80-90% dense. • B) Removed the culture medium from 10 cm Petri dishes; • C) Rinsed the cells once with 10 ml 1×PBS; • D) Added 4 ml 0.25% EDTA-Tripsin into 37° C., 5% CO2 incubator for trypsin digestion for 5 minutes, transferred to 15 ml centrifuge tube, centrifuged at 200 g for 5 minutes, discarded the supernatant to get cell precipitate; • E) Resuspended with 4 ml DMEM medium, counted and adjust to 50,000 cells/ml. • F) Added cell suspension to 96-well plate with 100 μL per well volume and incubated overnight at 37° C., 5% CO2 incubator.
(§3) • A) Preparation of gradient dilution solution of the tested compound: the test compound was configured into 1 mM reservoir solution.
(§4) • A) Taking the cell culture plate and adding 10 μL of 5 mg/ml MTT in the biosafety cabinet; • B) Putting the cell culture plate back into the incubator and continued incubation for 3 hours; • C) Taking the cell culture plate and removing the culture medium, adding 100 μL isopropanol (containing 0.4 mM HCl, 0.1% NP-40), and shaking the bed at room temperature for 30 min; and • D) Determining the absorbance value by selecting 570 nm on a TECAN enzyme-linked immunoassay detector.
(§5) The % Cell Viability was calculated using the following formula:
(§6) [formula] • Lum_HC: 0.1% DMSO control cell reading • Lum_Sample: cell readings with compound added • Lum_LC: Blank medium reading

[2] = tested on: Human breast cancer cell MCF-7; test: Cellular antiproliferative assay (MTT, 5 days), MCF-7; type: cell-based; settings: MCF-7 cells, 5 days incubation
Description: as §1, §2, §3, §4, §5, §6

[3] = tested on: ovarian cancer cell A2780; test: Cellular antiproliferative assay (MTT, 5 days), A2780; type: cell-based, human; settings: A2780 cells, 5 days incubation
Description: as §1, §2, §3, §4, §5, §6

Sequence of CDK6/CyclinD3 (Q00534 whole entry, species assumed): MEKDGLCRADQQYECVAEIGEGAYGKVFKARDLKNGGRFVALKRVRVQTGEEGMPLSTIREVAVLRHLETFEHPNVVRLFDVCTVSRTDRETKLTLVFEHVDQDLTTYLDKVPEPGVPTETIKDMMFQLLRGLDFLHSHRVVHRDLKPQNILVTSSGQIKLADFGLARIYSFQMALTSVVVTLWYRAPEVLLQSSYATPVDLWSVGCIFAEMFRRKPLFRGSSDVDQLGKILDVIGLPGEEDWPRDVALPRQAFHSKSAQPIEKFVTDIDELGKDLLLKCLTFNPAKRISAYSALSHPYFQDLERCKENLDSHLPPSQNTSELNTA
Sequence of CDK6/CyclinD3 (P30281 whole entry partner, species assumed): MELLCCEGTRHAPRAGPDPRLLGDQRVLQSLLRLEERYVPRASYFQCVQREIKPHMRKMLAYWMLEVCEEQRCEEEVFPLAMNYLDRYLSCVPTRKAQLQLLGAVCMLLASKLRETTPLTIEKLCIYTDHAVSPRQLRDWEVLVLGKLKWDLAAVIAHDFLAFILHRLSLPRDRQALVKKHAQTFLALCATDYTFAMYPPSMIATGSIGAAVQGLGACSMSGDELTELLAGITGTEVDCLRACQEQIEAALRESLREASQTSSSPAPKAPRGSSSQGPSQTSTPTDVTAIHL

| Structure (SMILES) | pIC50 ([1]; Homo sapiens, 120 h) | pIC50 ([2]; Homo sapiens, MCF7, 120 h) | pIC50 ([3]; Homo sapiens, 120 h) | also measured |
| --- | --- | --- | --- | --- |
| CC(C)N1CCOc2c(F)cc(-c3nc(NC4CCOCC4)ncc3F)cc21 [TA-8, 5-fluoro-4-(8-fluoro-4-isopropyl-3,4-dihydro-2H-benzo[b][1,4]oxazin-6-yl)-N-(tetrahydro-2H-pyran-4-yl)pyrimidin-2-amine] | – | – | – | pIC50 (CDK6/CyclinD3): 7.17; pIC50 (CDK4/CycD1): 7.67 |
| COC(=O)N1CCC[C@@H](Nc2ncc(Cl)c(-c3cc(F)c4c(c3)N(C(C)C)CCO4)n2)C1 [TA-10, methyl (R)-3-((5-chloro-4-(8-fluoro-4-isopropyl-3,4-dihydro-2H-benzo[b][1,4]oxazin-6-yl)pyrimidin-2-yl)amino)piperidine-1-carboxylate] | – | – | – | pIC50 (CDK6/CyclinD3): 6.69; pIC50 (CDK4/CycD1): 7.24 |
| CC(C)n1c(N2CCCC2=O)nc2c(F)cc(-c3nc(N[C@@H]4CCOC[C@H]4O)ncc3Cl)cc21 [TA-54] | – | – | – | pIC50 (CDK6/CyclinD3): < 6.30 |
| CC(C)n1c(N(C)C)nc2c(F)cc(-c3nc(N[C@H]4CC[C@@H](NS(C)(=O)=O)CC4)ncc3Cl)cc21 [TB-4] | – | – | – | pIC50 (CDK6/CyclinD3): < 6.30 |
| CN1CCCn2c1nc1c(F)cc(-c3nc(N[C@@H]4CCOC[C@H]4O)ncc3C(F)(F)F)cc12 [TB-41, (3S,4R)-4-((4-(9-fluoro-1-methyl-1,2,3,4-tetrahydrobenzo[4,5]imidazo[1,2-a]pyrimidin-7-yl)-5-(trifluoromethyl)pyrimidin-2-yl)amino)tetrahydro-2H-pyran-3-ol] | 5.70 to 6.30 | 5.70 to 6.30 | 5.70 to 6.30 | pIC50 (CDK6/CyclinD3): < 6.30 |
| CN1CCCn2c1nc1c(F)cc(-c3nc(N[C@@H]4CCOC[C@H]4O)ncc3F)cc12 [TB-42, (3S,4R)-4-((5-fluoro-4-(9-fluoro-1-methyl-1,2,3,4-tetrahydrobenzo[4,5]imidazo[1,2-a]pyrimidin-7-yl)pyrimidin-2-yl)amino)tetrahydro-2H-pyran-3-ol] | ≥ 6.30 | ≥ 6.30 | ≥ 6.30 | – |
| CN1CCn2c1nc1c(F)cc(-c3nc(N[C@@H]4CCOC[C@H]4O)ncc3Cl)cc12 [TB-45, (3S,4R)-4-((5-chloro-4-(8-fluoro-1-methyl-2,3-dihydro-1H-benzo[d]imidazo[1,2-a]imidazol-6-yl)pyrimidin-2-yl)amino)tetrahydro-2H-pyran-3-ol] | ≥ 6.30 | ≥ 6.30 | ≥ 6.30 | – |
| CN1C(=O)CCn2c1nc1c(F)cc(-c3nc(N[C@@H]4CCOC[C@H]4O)ncc3Cl)cc12 [TB-46, 7-(5-chloro-2-(((3S,4R)-3-hydroxytetrahydro-2H-pyran-4-yl)amino)pyrimidin-4-yl)-9-fluoro-1-methyl-3,4-dihydrobenzo[4,5]imidazo[1,2-a]pyrimidin-2(1H)-one] | ≥ 6.30 | ≥ 6.30 | ≥ 6.30 | – |
| CC1CCN(C)c2nc3c(F)cc(-c4nc(NC5CCN(S(C)(=O)=O)CC5)ncc4Cl)cc3n21 (stereo not shown) [TB-51, 5-chloro-4-(9-fluoro-1,4-dimethyl-1,2,3,4-tetrahydrobenzo[4,5]imidazo[1,2-a]pyrimidin-7-yl)-N-(1-(methylsulfonyl)piperidin-4-yl)pyrimidin-2-amine] | ≥ 6.30 | ≥ 6.30 | ≥ 6.30 | – |
| CN1CCn2c1nc1c(F)cc(-c3nc(NC4CCN(S(C)(=O)=O)CC4)ncc3Cl)cc12 [TB-52, 5-chloro-4-(8-fluoro-1-methyl-2,3-dihydro-1H-benzo[d]imidazo[1,2-a]imidazol-6-yl)-N-(1-(methylsulfonyl)piperidin-4-yl)pyrimidin-2-amine] | ≥ 6.30 | ≥ 6.30 | ≥ 6.30 | – |
| CNS(=O)(=O)c1ccc(Nc2ncc(Cl)c(-c3cc(F)c4nc5n(c4c3)C(C)CCN5C)n2)cc1 (stereo not shown) [TB-53, 4-((5-chloro-4-(9-fluoro-1,4-dimethyl-1,2,3,4-tetrahydrobenzo[4,5]imidazo[1,2-a]pyrimidin-7-yl)pyrimidin-2-yl)amino)-N-methylbenzenesulfonamide] | ≥ 6.30 | ≥ 6.30 | ≥ 6.30 | – |
| CC(C)n1c(N2CCOC2=O)nc2c(F)cc(-c3nc(Nc4ccc(S(=O)(=O)NC5(C#N)CC5)cc4)ncc3Cl)cc21 [TB-68] | – | – | – | pIC50 (CDK6/CyclinD3): < 6.30 |
| CC(C)n1c(N2CCOC2=O)nc2c(F)cc(-c3nc(Nc4ccc(S(=O)(=O)NCCN(C)C)cc4)nc4[nH]cnc34)cc21 [TB-70] | ≥ 6.30 | ≥ 6.30 | ≥ 6.30 | – |
| CN1CCCn2c1nc1c(F)cc(-c3nc(Nc4ccncc4)ncc3Cl)cc12 [TB-90] | ≥ 6.30 | 5.70 to 6.30 | ≥ 6.30 | – |
| C[C@@H]1CCN(C)c2nc3c(F)cc(-c4nc(N[C@@H]5CCOC[C@H]5O)ncc4Cl)cc3n21 [TB-91, (3S,4R)-4-((5-chloro-4-((R)-9-fluoro-1,4-dimethyl-1,2,3,4-tetrahydrobenzo[4,5]imidazo[1,2-a]pyrimidin-7-yl)pyrimidin-2-yl)amino)tetrahydro-2H-pyran-3-ol] | ≥ 6.30 | ≥ 6.30 | ≥ 6.30 | – |
| COC(=O)N1CCC(Nc2ncc(Cl)c(-c3cc(F)c4nc5n(c4c3)CCCN5C)n2)CC1 [TB-93, methyl 4-((5-chloro-4-(9-fluoro-1-methyl-1,2,3,4-tetrahydrobenzo[4,5]imidazo[1,2-a]pyrimidin-7-yl)pyrimidin-2-yl)amino)piperidine-1-carboxylate] | ≥ 6.30 | 5.70 to 6.30 | ≥ 6.30 | pIC50 (CDK6/CyclinD3): < 6.30 |
| CN1CCCn2c1nc1c(F)cc(-c3nc(NC4CCC(F)(F)CC4)ncc3Cl)cc12 [TB-95, 5-chloro-N-(4,4-difluorocyclohexyl)-4-(9-fluoro-1-methyl-1,2,3,4-tetrahydrobenzo[4,5]imidazo[1,2-a]pyrimidin-7-yl)pyrimidin-2-amine] | – | – | – | pIC50 (CDK6/CyclinD3): < 6.30 |
| COCc1cc(Nc2ncc(Cl)c(-c3cc(F)c4nc5n(c4c3)CCCN5C)n2)ccn1 [TB-130, 5-chloro-4-(9-fluoro-1-methyl-1,2,3,4-tetrahydrobenzo[4,5]imidazo[1,2-a]pyrimidin-7-yl)-N-(2-(methoxymethyl)pyridin-4-yl)pyrimidin-2-amine] | ≥ 6.30 | ≥ 6.30 | ≥ 6.30 | – |
| CN1CCCn2c1nc1c(F)cc(-c3nc(NC4CCOCC4)ncc3Cl)cc12 [TB-132, 5-chloro-4-(9-fluoro-1-methyl-1,2,3,4-tetrahydrobenzo[4,5]imidazo[1,2-a]pyrimidin-7-yl)-N-(tetrahydro-2H-pyran-4-yl)pyrimidin-2-amine] | ≥ 6.30 | 5.70 to 6.30 | ≥ 6.30 | – |
| CN1CCCn2c1nc1c(F)cc(-c3nc(Nc4ccc(C#N)cc4)ncc3Cl)cc12 [TB-133, 4-((5-chloro-4-(9-fluoro-1-methyl-1,2,3,4-tetrahydrobenzo[4,5]imidazo[1,2-a]pyrimidin-7-yl)pyrimidin-2-yl)amino)benzonitrile] | ≥ 6.30 | ≥ 6.30 | ≥ 6.30 | – |
| CCS(=O)(=O)N1CCC(Nc2ncc(Cl)c(-c3cc(F)c4nc5n(c4c3)CCCN5C)n2)CC1 [TB-143, 5-chloro-N-(1-(ethylsulfonyl)piperidin-4-yl)-4-(9-fluoro-1-methyl-1,2,3,4-tetrahydrobenzo[4,5]imidazo[1,2-a]pyrimidin-7-yl)pyrimidin-2-amina] | ≥ 6.30 | ≥ 6.30 | ≥ 6.30 | – |
| CNS(=O)(=O)N1CCC(Nc2ncc(Cl)c(-c3cc(F)c4nc5n(c4c3)CCCN5C)n2)CC1 [TB-144, 4-((5-chloro-4-(9-fluoro-1-methyl-1,2,3,4-tetrahydrobenzo[4,5]imidazo[1,2-a]pyrimidin-7-yl)pyrimidin-2-yl)amino)-N-methylpiperidine-1-sulfonamide] | ≥ 6.30 | ≥ 6.30 | ≥ 6.30 | – |
| CC1(C)CSc2nc3c(F)cc(-c4nc(N[C@@H]5CCOC[C@H]5O)ncc4Cl)cc3n2C1 [TB-146] | – | – | – | pIC50 [1]: ≥ 6.30; pIC50 ([2]; read-out: MCF7 IC50): ≥ 6.30; pIC50 [3]: ≥ 6.30 |
| C[C@H]1CCN(C)c2nc3c(F)cc(-c4cc(N[C@@H]5CCOC[C@H]5O)ncc4Cl)cc3n21 [TB-149] | – | – | – | pIC50 [1]: ≥ 6.30; pIC50 ([2]; read-out: MCF7 IC50): ≥ 6.30; pIC50 [3]: ≥ 6.30 |
| C[C@H]1C[C@H](C)n2c(nc3c(F)cc(-c4nc(N[C@@H]5CCOC[C@H]5O)ncc4Cl)cc32)N1C [TB-153] | ≥ 6.30 | ≥ 6.30 | ≥ 6.30 | – |
| C[C@@H]1C[C@H](C)n2c(nc3c(F)cc(-c4nc(N[C@@H]5CCOC[C@H]5O)ncc4Cl)cc32)N1C [TB-154] | ≥ 6.30 | ≥ 6.30 | ≥ 6.30 | – |
| CN1C(=O)CC(C)(C)n2c1nc1c(F)cc(-c3cc(N[C@@H]4CCOC[C@H]4O)ncc3Cl)cc12 [TB-162] | – | – | – | pIC50 [1]: ≥ 6.30; pIC50 ([2]; read-out: MCF7 IC50): ≥ 6.30; pIC50 [3]: ≥ 6.30 |
